Drawing on patent publication US12240828B2, “Heteroaromatic compounds as vanin inhibitors” (Boehringer Ingelheim International GmbH, priority 2018, dated 2025), this text covers IC50 for 25 molecules.

One assay concerns Pantetheinase (vanin). Nature of the assay: Human Whole Blood assay. Format: cell-based. The conditions noted are these: pantethine substrate, pantothenic acid formation by RapidFire MS, read-out: HWB IC50. As to the method: Human Whole Blood assay: Pantetheinase (vanin) converts panteheine into pantothenic acid and cysteamine. Accordingly, in the described protocol vanin activity is quantified by formation of pantothenic acid after pantetheine supplementation via pantethine. The assay is applicable to identify vanin inhibitors. Compound stocks are dissolved in DMSO at 10 mM. Further dilutions are performed in RPMI 1640 medium (Gibco, #A-10491-01) and final concentrations in the assay are 0.032 nM-500 nM.
Human blood is drawn into a blood bag (1% heparin, 50 I.E./mL). Blood is aliquoted into cavities of 96-deep-well plates at 290 μL and mixed with 10 μL compound solution or vehicle (30 sec at 1400 rpm on a shaker). Equilibration follows at room temperature, 250 rpm and for 30 min. The assay is starts by adding 10 μL of substrate solution (20 μM pantethine in 1 mM DTT, 0.0025% Brij-35, 50 mM HEPES, pH7.5) to each well, except for some blank wells which receive […] substrate buffer (1 mM DTT, 0.0025% Brij-35, 50 mM HEPES, pH7.5) only. Samples are thoroughly shaken (30 sec, 1400 rpm) and reaction is allowed to take place at room temperature, 250 rpm and for 5 min. The reaction is stopped by addition of a vanin tool inhibitor in excess (BI-1 total conc. 10 μM). Centrifugation of the plate follows at 4° C., 665 G for 10 min. Then the blood plasma samples (100 μL) are transferred into another 96-deep-well plate and proteins are precipitated (5 min on ice) by adding 100 μL of ice cold precipitation solution (1 μM labelled pantothenic acid (di-β-alanine-13C6,15N2 calcium salt, Sigma, #705837) in acetonitrile). Afterwards the plate is centrifuged (4° C., 3220 G, 10 min) and supernatants (50 μL) are collected into another 96-deep-well plate and mixed (10 sec, 1400 rpm) with 150 μL ice cold formic acid (0.1%, Carl Roth GmbH+Co.KG, #CP03.1). The formation of pantothenic acid is detected by RapidFire Mass Spectrometry. A TripleQuad 6500+ (ABSciex, Germany) is equipped with an LC-1290 system, a RapidFire autosampler (Agilent, Germany) and a C18 cartridge Type C 12 μL (Agilent Cat #G9526-80000). Mobile phase A is consisting of 0.09% formic acid and 0.01% trifluoroacetic acid in water and mobile phase B of 0.09% formic acid and 0.01% trifluoroacetic acid in acetonitrile/methanol/water=47.5/47.5/5.

The target of assay [1] is T1, FLAG-tagged Vanin-1 (AA 22-493, T26I) (Homo sapiens, UniProt O95497, T26I).
T1 construct: FLAG-tagged Vanin-1 (AA 22-493, T26I, produced internally); FLAG; made in house
T1 sequence (O95497 22-493 T26I): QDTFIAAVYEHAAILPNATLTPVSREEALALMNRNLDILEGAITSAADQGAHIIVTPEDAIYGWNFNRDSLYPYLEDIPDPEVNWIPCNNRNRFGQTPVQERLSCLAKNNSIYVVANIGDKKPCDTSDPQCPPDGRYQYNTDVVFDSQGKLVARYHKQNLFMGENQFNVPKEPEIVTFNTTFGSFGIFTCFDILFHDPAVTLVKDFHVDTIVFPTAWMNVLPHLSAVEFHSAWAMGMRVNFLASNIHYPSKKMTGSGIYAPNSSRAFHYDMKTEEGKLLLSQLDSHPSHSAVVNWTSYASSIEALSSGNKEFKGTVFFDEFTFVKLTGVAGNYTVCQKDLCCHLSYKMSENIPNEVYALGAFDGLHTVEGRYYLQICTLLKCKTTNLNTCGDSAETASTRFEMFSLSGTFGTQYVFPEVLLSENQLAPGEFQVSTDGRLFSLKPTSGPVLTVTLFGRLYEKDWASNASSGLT
Kind of assay: Vanin-1 enzymatic assay. The class given is biochemical. The conditions noted are these: 0.1 nM Vanin-1, 3 μM D-pantethine, pantothenic acid formation by RapidFire MS; geometric mean if multiple measurements; read-out: VNN-1 IC50. As to the method: The test compounds are dissolved in 100% DMSO at a concentration of 10 mM and in a first step diluted in DMSO to a concentration of 5 mM, followed by serial dilution steps in 100% DMSO. Dilution factor and number of dilution steps may vary according to needs. Typically 8 different concentrations by 1:5 dilutions are prepared, a further intermediate dilutions of the substances is carried out with assay buffer resulting in 1% final DMSO concentration in the assay.
0.1 nM of FLAG-tagged Vanin-1 (AA 22-493, T26I, produced internally) and test compounds are incubated at room temperature for 20 minutes in assay buffer (1 mM DTT, 0.0025% Brij-35, 50 mM HEPES, pH7.5). D-Pantethine (Sigma, Cat #P2125-5G) in assay buffer is added (final concentration 3 μM) and incubated for additional 30 minutes at room temperature. Total assay volume typically is 40 μl but might be adjusted according to needs. Reaction is stopped by adding equal volume of stop solution as the reaction mixture to reach 100 nM HD-pantothenic acid (as an internal standard) and 1% TFA. Assay plates are centrifuged for 2 minutes and the formation of pantothenic acid is detected by RapidFire Mass Spectrometry (mobile phase A: 0.1% formic acid and 0.01% trifluoroacetic acid in water; mobile phase B: 47.5% acetonitrile, 47.5% methanol, 0.1% formic acid and 0.01% trifluoroacetic acid in water) using a C18, 12 μL cartridge (Agilent Cat #G9205A).
The values given in Table I result from measurements of one or more samples. In case of multiple measurements the geometric mean values are given.

In general, IC50 refers to the concentration that gives 50% inhibition. Take `CN(C(=O)C1CCC1)[C@H]1CCN(C(=O)c2ccc(NCc3cccnc3)nc2)C1` [Example 3.1, N-Methyl-N-[(3S)-1-(6-{[(pyridin-3-yl)methyl]amino}pyridine-3-carbonyl)pyrrolidin-3-yl]cyclobutanecarboxamide]: the IC50 in the assay with Pantetheinase (vanin) was found to be 1.33 nM; in assay [1], 0.07 nM.

With `C[C@H](Nc1ccc(C(=O)N2CCC(C)(C#N)C2)cn1)c1ccccc1` (some centres unmarked) [Example 3.2], the IC50 amounted to 1.94 nM in the assay on Pantetheinase (vanin) and 0.19 nM in assay [1].

Consider `CC1(C#N)CCN(C(=O)c2ccc(NCc3cccnc3)nc2)C1` (centres unmarked) [Example 3.3], for which the IC50 in the assay with Pantetheinase (vanin) was 1.6 nM; in assay [1] it was 0.24 nM.

With `CC(=O)N(C)[C@H]1CCN(C(=O)c2ccc(NCc3ccc(Cl)cc3)nc2)C1` [Example 4.1, N-[(3S)-1-(6-{[(4-Chlorophenyl)methyl]amino}pyridine-3-carbonyl)pyrrolidin-3-yl]-N-methylacetamide], the IC50 in the assay with Pantetheinase (vanin) was determined as 5.88 nM; in assay [1], 0.68 nM.

For `CC(C)(Nc1ccc(C(=O)N2CC[C@H](N3CCCC3=O)C2)cn1)c1ccccc1` [Example 4.2], the IC50 in the assay with Pantetheinase (vanin) was 2.43 nM; in assay [1], 0.1 nM.

For the molecule `CC(C)(Nc1ccc(C(=O)N2CC[C@H](N3CCOC3=O)C2)cn1)c1ccccc1` [Example 4.3], the IC50 was determined as 2.32 nM in the assay with Pantetheinase (vanin) and 0.12 nM in assay [1].

On to `CC(=O)N(C)[C@H]1CCN(C(=O)c2ccc(NC(C)(C)c3ccccc3)nc2)C1` [Example 4.4], for which the figures for the IC50 (with Pantetheinase (vanin); in assay [1]) were 1.34 nM and 0.12 nM, respectively.

Turning to `CN(C(=O)C1(C#N)CC1)[C@H]1CCN(C(=O)c2ccc(NC(C)(C)c3ccccc3)nc2)C1` [Example 4.5], the IC50 came to 1.27 nM with Pantetheinase (vanin) and 0.14 nM in assay [1].

Consider `CC(=O)N(C)[C@H]1CCN(C(=O)c2ccc(NC(C)(C)c3ccc(Cl)cc3)nc2)C1` [Example 4.7], for which the IC50 was determined as 3.68 nM in the assay with Pantetheinase (vanin) and 0.22 nM in assay [1].

As for `CC(=O)N(C)[C@H]1CCN(C(=O)c2ccc(NCc3cccnc3)nc2)C1` [Example 7.1, N-Methyl-N-[(3S)-1-(6-{[(pyridin-3-yl)methyl]amino}pyridine-3-carbonyl)pyrrolidin-3-yl]acetamide], the concentration for half-maximal inhibition (IC50) with Pantetheinase (vanin) is 1.78 nM; in assay [1], 0.13 nM.

Take `CN(C(=O)C1CC(F)(F)C1)[C@H]1CCN(C(=O)c2ccc(NC(C)(C)c3cccnc3)nc2)C1` [Example 8.2]: the IC50 in the assay with Pantetheinase (vanin) was found to be 1 nM; in assay [1], 0.08 nM.

For the molecule `CC1(C#N)CCN(C(=O)c2ccc(NC(C)(C)c3cccnc3)nc2)C1` (centres unmarked) [Example 8.3], the results for the IC50 (in the assay with Pantetheinase (vanin); in assay [1]) were 0.85 nM and 0.08 nM, respectively.

Turning to `CN(C(=O)C1CC(F)(F)C1)[C@H]1CCN(C(=O)c2ccc(NCc3cccnc3)nc2)C1` [Example 8.4], the IC50 in the assay on Pantetheinase (vanin) was 1.16 nM; in assay [1], 0.13 nM.

For the molecule `CN(c1ncccn1)[C@H]1CCN(C(=O)c2ccc(NCc3cccnc3)nc2)C1` [Example 8.5], the IC50 in the assay with Pantetheinase (vanin) amounted to 16.3 nM; in assay [1] it was 0.14 nM.

Regarding `CN(C(=O)C1CC1)[C@H]1CCN(C(=O)c2ccc(NC3(c4cncnc4)CC3)nc2)C1` [Example 8.6], the IC50 amounted to 1.84 nM in the assay on Pantetheinase (vanin) and 0.15 nM in assay [1].

`CC(=O)N(C)[C@H]1CCN(C(=O)c2ccc(NC(C)(C)c3cccnc3)nc2)C1` [Example 8.7]: the 50% inhibitory concentration (IC50) came to 3.29 nM in the assay on Pantetheinase (vanin) and 0.16 nM in assay [1].

Turning to `O=C(c1ccc(NCc2ccc(Cl)cc2)nc1)N1CC[C@H](N2CCCC2=O)C1` [Example 8.9], the IC50 is 4.89 nM in the assay on Pantetheinase (vanin) and 0.32 nM in assay [1].

For `CN(C(=O)C1(C)CCC1)[C@H]1CCN(C(=O)c2ccc(NC3(c4cncnc4)CC3)nc2)C1` [Example 8.10], the values for the half-maximal inhibitory concentration (IC50) (in the assay on Pantetheinase (vanin); in assay [1]) were 2.16 nM and 0.33 nM, respectively.

Take `O=C(c1ccc(NCc2cccnc2)nc1)N1CCC2(CCOCC2)C1` [Example 8.11]: the IC50 in the assay on Pantetheinase (vanin) came to 3.3 nM; in assay [1], 0.34 nM.

Take `O=C(c1ccc(NCc2ccc(Cl)cc2)nc1)N1CC[C@H](N2CCOC2=O)C1` [Example 8.12]: the results for the 50% inhibitory concentration (IC50) (in the assay with Pantetheinase (vanin); in assay [1]) were 10.4 nM and 0.41 nM, respectively.

Turning to `CC(=O)N(C)[C@H]1CCN(C(=O)c2ccc(N[C@@H](C)c3ccc(C(F)(F)F)nc3)nc2)C1` [Example 9.1, N-Methyl-N-[(3S)-1-(6-{[(1S)-1-[6-(trifluoromethyl)pyridin-3-yl]ethyl]amino}pyridine-3-carbonyl)pyrrolidin-3-yl]acetamide], the IC50 in the assay on Pantetheinase (vanin) amounted to 2.78 nM; in assay [1], 0.39 nM.

For the molecule `CC(=O)N(C)[C@H]1CCN(C(=O)c2ccc(N[C@@H](C)c3cccc(C(F)(F)F)c3)nc2)C1` [Example 9.3], the IC50 was 4.28 nM in the assay with Pantetheinase (vanin) and 0.17 nM in assay [1].

Consider `CC(=O)N(C)[C@H]1CCN(C(=O)c2ccc(N[C@@H](C)c3ccc(Cl)cc3)nc2)C1` [Example 9.4], for which the concentration for half-maximal inhibition (IC50) was found to be 4.23 nM with Pantetheinase (vanin) and 0.27 nM in assay [1].

Regarding `CC(=O)N(C)[C@H]1CCN(C(=O)c2ccc(N[C@@H](C)c3ccc(F)cc3)nc2)C1` [Example 9.5], the values for the IC50 (in the assay on Pantetheinase (vanin); in assay [1]) were 2.19 nM and 0.4 nM, respectively.

Take `CC(=O)N(C)[C@H]1CCN(C(=O)c2ccc(N[C@@H](C)c3ccc(F)cc3F)nc2)C1` [Example 9.6]: the IC50 was found to be 5.03 nM in the assay on Pantetheinase (vanin) and 0.42 nM in assay [1].
